ChEMBL document CHEMBL6087386, “Radioprotective effectiveness of a novel delta-tocotrienol prodrug on mouse hematopoietic system against 60Co gamma-ray irradiation through inducing granulocyte-colony stimulating factor production” (Eur J Med Chem, 2024)
Activity calls are given as the source filed them. The rule behind the calls is not given here.

Legend:
Mus musculus [1] = experiment: Radioprotective activity in C57BL/6J mouse assessed as increase in long term hematopoietic stem cell frequency in LSK compartment at 100 mg/kg, sc preincubated with compound for 24 hrs followed by total body irradiation with 6.5 Gy and measured after 30 days; format: functional, organism-based; conditions: time 31.0 day
[2] = Half life in ICR mouse at 100 mg/kg, iv measured upto 24 hrs by LC-MS/MS analysis; format: ADME, organism-based; conditions: in vivo
[3] = MRT (0 to t) in ICR mouse at 100 mg/kg, iv measured upto 24 hrs by LC-MS/MS analysis; format: ADME, organism-based; conditions: in vivo
[4] = Volume of distribution at steady state in ICR mouse at 100 mg/kg, iv measured upto 24 hrs by LC-MS/MS analysis; format: ADME, organism-based; conditions: ICR, in vivo, read-out: Vdss
Mus musculus [5] = experiment: Radioprotective activity in C57BL/6J mouse assessed as survival rate at 100 mg/kg, sc preincubated with compound for 24 hrs followed by total body irradiation with 8.5 Gy and measured after 30 days by Kaplan-meier plot analysis; format: functional; conditions: time 31 day
Mus musculus [6] = experiment: Radioprotective activity in C57BL/6J mouse assessed as increase in RBC count at 100 mg/kg, sc preincubated with compound for 24 hrs followed by total body irradiation with 6.5 Gy and measured after 30 days; format: functional, organism-based; conditions: time 31.0 day
[7] = MRT (0 to infinity) in ICR mouse at 100 mg/kg, iv measured upto 24 hrs by LC-MS/MS analysis; format: ADME, organism-based; conditions: ICR, in vivo
Mus musculus [8] = experiment: Radioprotective activity in C57BL/6J mouse assessed as increase in platelet count at 100 mg/kg, sc preincubated with compound for 24 hrs followed by total body irradiation with 6.5 Gy and measured on day 10; format: functional, organism-based; conditions: time 11.0 day
Mus musculus [9] = experiment: Radioprotective activity in C57BL/6J mouse assessed as increase in neutrophils at 100 mg/kg, sc preincubated with compound for 24 hrs followed by total body irradiation with 6.5 Gy and measured after 30 days; format: functional, organism-based; conditions: time 31.0 day
Mus musculus [10] = experiment: Radioprotective activity in C57BL/6J mouse assessed as increase in WBC count at 100 mg/kg, sc preincubated with compound for 24 hrs followed by total body irradiation with 6.5 Gy and measured after 30 days; format: functional, organism-based; conditions: time 31.0 day
Mus musculus [11] = experiment: Radioprotective activity in C57BL/6J mouse assessed as increase in spleen coefficient at 100 mg/kg, sc preincubated with compound for 24 hrs followed by total body irradiation with 6.5 Gy and measured after 10 days; format: functional, organism-based; conditions: time 11.0 day
[12] = MRT (0 to t) in ICR mouse at 100 mg/kg, sc measured upto 24 hrs by LC-MS/MS analysis; format: ADME, organism-based; conditions: in vivo
Mus musculus [13] = experiment: Radioprotective activity in C57BL/6J mouse assessed as increase in neutrophils at 100 mg/kg, sc preincubated with compound for 24 hrs followed by total body irradiation with 6.5 Gy and measured on day 7; format: functional, organism-based; conditions: time 8.0 day
Mus musculus [14] = experiment: Radioprotective activity in C57BL/6J mouse assessed as increase in multipotent progenitor frequency in LSK compartment at 100 mg/kg, sc preincubated with compound for 24 hrs followed by total body irradiation with 6.5 Gy and measured after 30 days; format: functional, organism-based; conditions: time 31.0 day
Mus musculus [15] = experiment: Induction of G-CSF production in C57BL/6J mouse model at 100 mg/kg, sc measured for 24 hrs by ELISA analysis; format: functional, organism-based
[16] = Cmax in ICR mouse at 100 mg/kg, iv measured upto 24 hrs by LC-MS/MS analysis; format: ADME, organism-based; conditions: in vivo
Mus musculus [17] = experiment: Radioprotective activity in C57BL/6J mouse assessed as increase in number of LK cells at 100 mg/kg, sc preincubated with compound for 24 hrs followed by total body irradiation with 6.5 Gy and measured after 30 days; format: functional, organism-based; conditions: time 31.0 day
Mus musculus [18] = experiment: Radioprotective activity in C57BL/6J mouse assessed as increase in platelets count at 100 mg/kg, sc preincubated with compound for 24 hrs followed by total body irradiation with 6.5 Gy and measured after 30 days; format: functional, organism-based; conditions: time 31.0 day
[19] = Bioavailability in ICR mouse at 100 mg/kg, sc measured upto 24 hrs by LC-MS/MS analysis; format: ADME, organism-based; conditions: in vivo
[20] = Clearance in ICR mouse at 100 mg/kg, iv measured upto 24 hrs by LC-MS/MS analysis; format: ADME, organism-based; conditions: in vivo
Mus musculus [21] = experiment: Radioprotective activity in C57BL/6J mouse assessed as increase in number of total bone marrow cells at 100 mg/kg, sc preincubated with compound for 24 hrs followed by total body irradiation with 6.5 Gy and measured after 30 days; format: functional, organism-based; conditions: time 31.0 day
Mus musculus [22] = experiment: Radioprotective activity in C57BL/6J mouse assessed as increase in number of LSK cells at 100 mg/kg, sc preincubated with compound for 24 hrs followed by total body irradiation with 6.5 Gy and measured after 30 days; format: functional, organism-based; conditions: time 31.0 day
[23] = Tmax in ICR mouse at 100 mg/kg, iv measured upto 24 hrs by LC-MS/MS analysis; format: ADME, organism-based; conditions: in vivo
[24] = Tmax in ICR mouse at 100 mg/kg, sc measured upto 24 hrs by LC-MS/MS analysis; format: ADME, organism-based; conditions: in vivo
[25] = Cmax in ICR mouse at 100 mg/kg, sc measured upto 24 hrs by LC-MS/MS analysis; format: ADME, organism-based; conditions: in vivo
Mus musculus [26] = experiment: Radioprotective activity in C57BL/6J mouse assessed as survival rate at 100 mg/kg, sc preincubated with compound for 24 hrs followed by total body irradiation with 8.5 Gy and measured after 20 days by Kaplan-meier plot analysis; format: functional; conditions: light or radiation study, 504 h, time 21 day
Mus musculus [27] = experiment: Radioprotective activity in C57BL/6J mouse assessed as splenomegaly at 100 mg/kg, sc preincubated with compound for 24 hrs followed by total body irradiation with 6.5 Gy and measured after 10 days; format: functional, organism-based; conditions: time 11.0 day
Mus musculus [28] = experiment: Radioprotective activity in C57BL/6J mouse assessed as increase in RBC count at 100 mg/kg, sc preincubated with compound for 24 hrs followed by total body irradiation with 6.5 Gy and measured on day 14; format: functional, organism-based; conditions: time 15.0 day
Mus musculus [29] = experiment: Radioprotective activity in C57BL/6J mouse assessed as fold increase in total number of splenic nucleated cells at 100 mg/kg, sc preincubated with compound for 24 hrs followed by total body irradiation with 6.5 Gy and measured after 10 days; format: functional; conditions: time 11 day
Mus musculus [30] = experiment: Induction of G-CSF production in C57BL/6J mouse model at 100 to 200 mg/kg, sc measured for 24 hrs by ELISA analysis; format: functional, organism-based; conditions: dose 100-200 mg/kg
Mus musculus [31] = experiment: Radioprotective activity in C57BL/6J mouse assessed as increase in percentage of LSK cells at 100 mg/kg, sc preincubated with compound for 24 hrs followed by total body irradiation with 6.5 Gy and measured after 30 days; format: functional, organism-based; conditions: time 31.0 day
Mus musculus [32] = experiment: Radioprotective activity in C57BL/6J mouse assessed as increase in ST-HSC number at 100 mg/kg, sc preincubated with compound for 24 hrs followed by total body irradiation with 6.5 Gy and measured after 30 days; format: functional, organism-based; conditions: time 31.0 day
Mus musculus [33] = experiment: Radioprotective activity in C57BL/6J mouse assessed as survival rate at 100 mg/kg, sc preincubated with compound for 24 hrs followed by total body irradiation with 9.5 Gy and measured after 30 days by Kaplan-meier plot analysis; format: functional; conditions: light or radiation study, 744 h, time 31 day
Mus musculus [34] = experiment: Radioprotective activity in C57BL/6J mouse assessed as increase in MPP number at 100 mg/kg, sc preincubated with compound for 24 hrs followed by total body irradiation with 6.5 Gy and measured after 30 days; format: functional, organism-based; conditions: time 31.0 day
Mus musculus [35] = experiment: Radioprotective activity in C57BL/6J mouse assessed as increase in percentage of LK cells at 100 mg/kg, sc preincubated with compound for 24 hrs followed by total body irradiation with 6.5 Gy and measured after 30 days; format: functional, organism-based; conditions: time 31.0 day
Mus musculus [36] = experiment: Induction of G-CSF production in C57BL/6J mouse model at 12.5 to 25 mg/kg, sc measured for 24 hrs by ELISA analysis; format: functional, organism-based; conditions: dose 12.5-25 mg/kg
Mus musculus [37] = experiment: Radioprotective activity in C57BL/6J mouse assessed as effect on splenic LT-HSCs number at 100 mg/kg, sc preincubated with compound for 24 hrs followed by total body irradiation with 6.5 Gy and measured after 10 days; format: functional, organism-based; conditions: time 11.0 day
Mus musculus [38] = experiment: Induction of G-CSF production in C57BL/6J mouse model at 50 mg/kg, sc measured for 24 hrs by ELISA analysis; format: functional, organism-based
Mus musculus [39] = experiment: Induction of G-CSF production in sc dosed C57BL/6J mouse model measured for 24 hrs by ELISA analysis; format: functional, organism-based; conditions: dose 12.5-200 mg/kg
Mus musculus [40] = experiment: Radioprotective activity in C57BL/6J mouse assessed as effect on LT-HSC number at 100 mg/kg, sc preincubated with compound for 24 hrs followed by total body irradiation with 6.5 Gy and measured after 30 days; format: functional, organism-based; conditions: time 31.0 day

| SMILES | Activity (Mus musculus [1]) | half-life [2] [h] | MRT last at 24 h [3] [h] | Vd [4] [L/kg] | Activity (Mus musculus [6]) | MRT inf [7] [h] | Activity (Mus musculus [8]) | Activity (Mus musculus [9]) | Activity (Mus musculus [10]) | Activity (Mus musculus [11]) | MRT last at 24 h [12] [h] | Activity (Mus musculus [13]) | Activity (Mus musculus [14]) | Activity (Mus musculus [15]) | Cmax [16] [ng/mL] | Activity (Mus musculus [18]) | F [19] [%] | CL [20] [mL/min/kg] | Tmax [23] [h] | Tmax [24] [h] | further results |
| --- | --- | --- | --- | --- | --- | --- | --- | --- | --- | --- | --- | --- | --- | --- | --- | --- | --- | --- | --- | --- | --- |
| CC(C)=CCC/C(C)=C/CC/C(C)=C/CC[C@]1(C)CCc2cc(OCCO)cc(C)c2O1 | Active | 7.56 | 0.67 | 0.351 | Active | 0.92 | Active | Active | Active | Active | 12 | Active | Active | Active | 8.15 | Active | 8.3 | 6.3815 | 17.3 | 0.67 | Activity (Mus musculus [5]): 100%; Activity (Mus musculus [17]): Active; Activity (Mus musculus [21]): Active; Activity (Mus musculus [22]): Active; Cmax [25]: 1.14 ng/mL; survival at 100 mg/kg (Mus musculus [26]): 70%; Activity (Mus musculus [27]): Active; Activity (Mus musculus [28]): Active |
| CC(C)=CCC/C(C)=C/CC/C(C)=C/CC[C@]1(C)CCc2cc(O)cc(C)c2O1 [DELTA-TOCOTRIENOL] | Active | 4.43 | 1.46 | 0.437 | Active | 1.63 | Active | Active | Active | Active | 13.9 | Active | Active | Active | 1.11 | Active | 2.02 | 4.4143 | 0.08 | 12 | fold change (FC) (Mus musculus [29]): ~2.5; Activity (Mus musculus [30]): Active; Activity (Mus musculus [31]): Active; Activity (Mus musculus [32]): Active; survival at 100 mg/kg (Mus musculus [33]): 60%; Activity (Mus musculus [34]): Active; Activity (Mus musculus [35]): Active; Cmax [25]: 4.95 ng/mL; Activity (Mus musculus [36]): inactive; Activity (Mus musculus [37]): Active; survival at 100 mg/kg (Mus musculus [26]): 70%; Activity (Mus musculus [38]): Active; Activity (Mus musculus [27]): Active; Activity (Mus musculus [39]): Dose-dependent-effect; Activity (Mus musculus [28]): Active; Activity (Mus musculus [40]): inactive |
